US9133225B2, “Dual targeting anticancer agents” (priority 2013, dated 2015)

Key:
HeLa cells = experiment: MTT cytotoxicity assay, HeLa; conditions: read-out: cytotoxicity IC50; HeLa, cervical; MTT, 48 h treatment; spread in brackets
Source text: (§1) (a) Dulbecco's Modified Eagle Medium (DMEM), Dulbecco's phosphate buffered saline (DPBS), fetal bovine serum (FBS) and 0.25% trypsin/EDTA solutions were purchased from Cellgro (Manassas, Va.). Penicillin-streptomycin solutions were purchased from Mediatech (Manassas, Va.). (b) HeLa (CCL-2TM) cells, A549, A2870, A2870/CP70, MCF-7, PC-3, and MRC-5 cells were purchased from American Type Culture Collection (ATCC, Manassas, Va., USA). (c) HCT116 cells were kindly donated by Laura Trudel (MIT). HeLa, A549, MCF-7, and MRC-5 cells were cultured using DMEM supplemented with 10% FBS and 1% penicillin-streptomycin. A2870, A2870/CP70, and PC-3 cells were cultured in RPMI supplemented with 10% FBS and 1% penicillin-streptomycin. HCT116 cells were cultured in McCoy's supplemented with 10% FBS and 1% penicillin-streptomycin. All cell-culture experiments were performed in the aforementioned media in an incubator operating at 37° C. and in the presence of a humidified atmosphere containing 5.0% CO2. Cells were harvested using a 0.25% trypsin/EDTA solution.
(§2) The cytotoxicity of the compounds was assessed by means of the MTT assay (MTT=3-(4,5-dimethyl-2-thiazolyl)-2,5-diphenyl-2H-tetrazolium bromide). Typically, on day one, ˜1×10^3 cells were seeded into 96-well plates in 100 μL media per well. […] The optical density for each well at 550 nm was measured with a microplate reader.

[1] = test system: A2780 ovarian carcinoma cells; experiment: MTT cytotoxicity assay, A2780; conditions: read-out: cytotoxicity IC50; A2780, ovarian; MTT, 48 h treatment; spread in brackets
Source text: as §1, §2

A549 cells = experiment: Immunoblotting of DNA damage and apoptosis biomarkers; type: cell-based; conditions: 0.75-6 μM, 48 h
Experimental: To gain further insight into the cellular response evoked by Pt(IV)(α-TOS)(OEt) treatment, biomarkers related to DNA damage and apoptosis were monitored. […] Whole cell lysates were resolved by SDS-PAGE and analyzed by immunoblotting against γH2AX, p53, and cleaved caspase-7, cleaved caspase-9, cleaved PARP-1, and β-actin as control.
A549 cells (5×10^5 cells) were incubated with test compound for 48 h at 37° C. Cells were washed with PBS, scraped into SDS-PAGE loading buffer (64 mM Tris-HCl (pH6.8)/9.6% glycerol/2% SDS/5% β-mercaptoethanol/0.01% Bromophenol Blue) and incubated at 95° C. for 10 min. Whole cell lysates were resolved by 4-20% sodium dodecylsulphate polyacylamide gel electrophoresis (SDS-PAGE; 200 V for 1 h) followed by electro transfer to polyvinylidene difluoride membrane, PVDF (350 mA for 1 h). Membranes were blocked in 5% (w/v) non-fat milk in PBST (PBS/0.1% Tween 20) and incubated with the appropriate primary antibodies (Cell Signalling Technology and Santa Cruz). After incubation with horseradish peroxidase-conjugated secondary antibodies (Cell Signalling Technology), immune complexes were detected with the ECL detection reagent (BioRad) and analysed using an Alpha Innotech ChemiImager™ 5500 fitted with a chemiluminescence filter.

HCT116 cells = experiment: MTT cytotoxicity assay, HCT116; conditions: read-out: cytotoxicity IC50; HCT116, colon; MTT, 48 h treatment; spread in brackets
Source text: as §1
The cytotoxicity of the compounds was assessed by means of the MTT assay (MTT=3-(4,5-dimethyl-2-thiazolyl)-2,5-diphenyl-2H-tetrazolium bromide). Typically, on day one, ˜1×10^3 cells were seeded into 96-well plates in 100 μL media per well. The last row of the plate was left empty as a control for background absorption. The cells were allowed to grow for 24 h in the incubator at 37° C. On day two, a series of drug dilutions in growth media were prepared immediately prior to cell treatment. The media in the wells of the 96 plates were replaced with 100 μL of growth media containing appropriate drug concentrations. The cells were treated for 48 h at 37° C. in the incubator. On day four, a stock solution of MTT (5 mg/mL in PBS buffer) was diluted with media so that, when 100 μL of the media was added to each well, 10 μL of MTT stock was applied. […] The optical density for each well at 550 nm was measured with a microplate reader.

Q: For CC[O][Pt]([NH2])([NH2])([Cl])([Cl])[O]C(=O)CCC(=O)Oc1c(C)c(C)c2c(c1C)CCC(C)(CCCC(C)CCCC(C)CCCC(C)C)O2 (stereo not drawn) [Pt(IV)(α-TOS)(OEt)], which IC50 (HeLa cells) is on record?
A: 1900 nM

Q: And the IC50 [1]?
A: 20 nM

Q: And the “cleaved PARP-1 expression” value (A549 cells)?
A: increased

Q: And the “cleaved caspase-9 expression” value (A549 cells)?
A: increased

Q: And the p53 expression (A549 cells)?
A: increased in a dose-dependent manner

Q: What about the γH2AX expression (A549 cells) of the same molecule?
A: an increase in γH2AX expression

Q: What about the IC50 (HCT116 cells) of the same molecule?
A: 1240 nM
